Here are results for 16 compounds from patent publication US20250340561A1, “QUINAZOLINE COMPOUND FOR INDUCING DEGRADATION OF G12D MUTANT KRAS PROTEIN” (Astellas Pharma Inc., priority 2021, published 2025).

pIC50: −log10 of the molar value. Where two headings read alike, the source gives them in different places.

In experiment [1] the test system is human G12D mutant KRAS-positive pancreatic cancer line AsPC-1. Description: Test Example 3: non-anchorage-dependent cell growth inhibition, spheroid 3D cell culture. The experiment is classed as cell-based. To be noted: Homo sapiens, ASPC1, 144 h, AsPC-1 spheroid 3D culture, 6 days, CellTiter Glo 2.0. As to the method: Test Example 3: Evaluation of Non-Anchorage-Dependent Cell Growth Inhibition Action on Human G12D Mutant KRAS-Positive Pancreatic Cancer Line AsPC-1
The non-anchorage-dependent cell growth inhibition action of test compounds was evaluated by spheroid 3D cell culture.
AsPC-1 cells were seeded on a low-cell-adhesive round bottom 384-well plate (PrimeSurface: from Sumitomo Bakelite) at 36 μL/well to give 5×10^2 cells per well. The cell culture was performed under the same conditions as in the Test Example 2.
The next day, the test compounds (6 points having final concentrations in the range of 10 μM to 3.0 nM) and DMSO, which was the solvent for the test compounds, as a negative control were diluted 100-fold with a fresh medium and were added at 4 μL per well. After culturing in the presence of […] at 37° C. for 6 days, CellTiter Glo 2.0 (from Promega) was added at 20 μL per well. After stirring with a plate mixer (from FINEPCR) at normal temperature for 1 hour, the luminescent signals were measured with ARVO X3 (from PerkinElmer).
With the signaling value in treatment with DMSO taken as […] and with the signaling value in the medium alone without cells taken as […], the […] inhibition values (IC50) were calculated by Sigmoid-Emax model nonlinear regression analysis. The molecular weights of the test compounds were calculated as the molecular weights of the dihydrochloride for Example No. 22, the trihydrochlorides for Example Nos. 2-7, 9-12, 14-18 and 30, the tetrahydrochlorides for Example Nos. 19 and 46, the pentahydrochloride for Example No. 21 and the free forms forming no salt for the remaining Example Nos. The results for some test compounds of the formula (I) are shown in Table 4.
(ATP-based viability assays read luminescence as a measure of living cells.)

Experiment [2] has as its system phosphorylation of ERK (Thr202/Tyr204). Description: Test Example 2: ERK phosphorylation inhibition action in AsPC-1, Cell ELISA. The format is cell-based, human. The conditions noted are these: Homo sapiens, ASPC1, 24 h, AsPC-1 cells, 0% = 1 μM trametinib. As to the method: Test Example 2: Evaluation of ERK Phosphorylation Inhibition Action on Human G12D Mutant KRAS-Positive Pancreatic Cancer Line AsPC-1
The ERK phosphorylation inhibition action of test compounds was evaluated by measuring phosphorylation of the 202th threonine (Thr202) and the 204th tyrosine (Tyr204) of ERK located downstream of the KRAS signal by Cell ELISA.
AsPC-1 cells were seeded on a 384-well plate (from Greiner bio-one) at 36 μL/well to give 2.0×10^4 cells per well. As for the cell culture conditions, a RPMI 1640 medium containing 10% fetal bovine serum was used in the presence of 5% CO2 at 37° C.
The next day, the test compounds (6 points having final concentrations in the range of 10 μM to 3.0 nM), trametinib (MEK inhibitor) of a final concentration of 1 μM as a positive control and DMSO, which was the solvent for the test compounds, as a negative control were diluted 100-fold with a fresh medium and were added at 4 μL per well. The cells were then cultured for 24 hours. After culturing, a 30% glyoxal solution (40% glyoxal [from Nacalai Tesque] was diluted with PBS) was quickly added at 30 μL per well, and the plate was allowed to stand for 90 minutes at room temperature to thus immobilize the cells. Then, the plate was centrifuged to remove the supernatant (using a centrifugal dehydrator machine, the supernatant was removed by the same method hereinafter), and 0.1% Triton X-100-containing PBS was added at 20 μL per well. After allowing to stand for 10 minutes at room temperature, the supernatant was removed by centrifugation, and the same operation was further repeated. Next, 0.5% SDS-containing PBS was added at 20 μL per well, and after allowing to stand at room temperature for 30 minutes, the supernatant was removed by centrifugation. Subsequently, a blocking solution (Intercept Blocking Buffer) was added at 20 μL per well, and the plate was allowed to stand for 1 hour at room temperature. The supernatant was removed by centrifugation, and an ERK (Thr202/Tyr204) phosphorylation antibody (Phospho-p44/42 MAPK (Erk 1/2) (Thr202/Tyr204) (D13.14.4E) XP Rabbit mAb; from Cell Signaling Technology) diluted 2,500-fold with a blocking solution was added at 10 or 15 μL per well as a primary antibody. The plate was allowed to stand at 4° C. overnight.
The next day, the plate was centrifuged to remove the supernatant. 0.05% Tween-20-containing PBS was added at 50 μL per well, and the supernatant was removed by centrifugation to thus wash each well. The washing was performed three times in total. After washing, Goat anti-Rabbit IgG H&L (IRDye 800CW) diluted 1,000-fold with a blocking solution was added at […] as a secondary antibody, and the plate was allowed to stand for 1 hour at room temperature. The plate was centrifuged to remove the supernatant, and each well was washed three times with 0.05% Tween-20-containing PBS in the same manner as after the primary antibody reaction. After removing the supernatant by centrifuging the plate, the plate was dried as it was with air at room temperature for 3 hours or more, and the 800-nm fluorescent signals were measured with Aerius.
With the signaling value at the time of addition of DMSO taken as 100% and with the signaling value at the time of addition of 1 μM trametinib taken as 0%, the 50% inhibition values (IC50) were calculated by Sigmoid-Emax model nonlinear regression analysis. The molecular weights of the test compounds were calculated as the molecular weights of the dihydrochloride for Example No. 22, the trihydrochlorides for Example Nos. 2-7, 9-12, 14-18 and 30, the tetrahydrochlorides for Example Nos. 19 and 46, the pentahydrochloride for Example No. 21 and the free forms forming no salt for the remaining Example Nos. The results for some test compounds of the formula (I) are shown in Table 3.
On the technique in general: In an ELISA, binding on a coated surface is turned into a signal by an enzyme label.

On to `Cc1c(F)cc2[nH]ncc2c1-c1c(C2CC2)cc2c(N3C[C@@H]4C[C@H]3CN4)nc(OC3CCOCC3)nc2c1OCc1ccc(-c2cn([C@H](C(=O)N3C[C@H](O)C[C@H]3C(=O)N[C@@H](CO)c3cccc(S(C)(=O)=O)c3)C(C)C)nn2)cc1` [Example 67], for which the negative-log IC50 (pIC50) (commonly the negative decadic logarithm of the IC50, by convention in mol/L) in experiment [1] (read-out: IC50) was 6.01; in experiment [2] (read-out: IC50), 6.12.
Regarding `Cc1ncsc1-c1ccc([C@H](CO)NC(=O)[C@@H]2C[C@@H](O)CN2C(=O)[C@H](C(C)C)n2cc(-c3ccc(COc4c(-c5c(C)c(F)cc6[nH]ncc56)c(C5CC5)cc5c(N6C[C@@H]7C[C@H]6CN7)nc(O[C@H](C)[C@@H](C)O)nc45)cc3)nn2)cc1` (atropisomer, axis not shown) [Example 37], the pIC50 was 7.72 in experiment [1] and 7.74 in experiment [2].
As for `Cc1ncsc1-c1ccc([C@H](CO)NC(=O)[C@@H]2C[C@@H](O)CN2C(=O)[C@H](C(C)C)n2cc(-c3ccc(COc4c(-c5c(C)c(F)cc6[nH]ncc56)c(C5CC5)cc5c(N6C[C@@H]7C[C@H]6CN7)nc(O[C@H]6CCOC6)nc45)cc3)nn2)cc1` [Example 29], the values for the negative logarithm of the IC50 (pIC50) in experiment [1] and in experiment [2] were 7.38 and 7.82, respectively.
On to `CO[C@@H](C)COc1nc(N2C[C@@H]3C[C@H]2CN3)c2cc(C3CC3)c(-c3c(C)c(F)cc4[nH]ncc34)c(OCc3ccc(-c4cn([C@H](C(=O)N5C[C@H](O)C[C@H]5C(=O)N[C@@H](CO)c5ccc(-n6ccnc6C)cc5)C(C)C)nn4)cc3)c2n1` [Example 71], for which the pIC50 was 7.29 in experiment [1] (read-out: IC50) and 7.42 in experiment [2] (read-out: IC50).
Consider `COCCN1CC[C@H](Oc2nc(N3C[C@@H]4C[C@H]3CN4)c3cc(C4CC4)c(-c4c(C)c(F)cc5[nH]ncc45)c(OCc4ccc(-c5cn([C@H](C(=O)N6C[C@H](O)C[C@H]6C(=O)N[C@@H](CO)c6ccc(-c7scnc7C)cc6)C(C)C)nn5)cc4)c3n2)C1` [Example 32], for which the results for the negative-log IC50 (pIC50) in experiment [1] and in experiment [2] were 6.73 and 7.04, respectively.
The matching figures for `Cc1ncsc1-c1ccc([C@H](CO)NC(=O)[C@@H]2C[C@@H](O)CN2C(=O)[C@H](C(C)C)n2cc(-c3ccc(COc4c(-c5c(C)c(F)cc6[nH]ncc56)c(C5CC5)cc5c(N6C[C@@H]7C[C@H]6CN7)nc(OC[C@H](C)N6CCCC6)nc45)cc3)nn2)cc1` [Example 64]: 6.61 and 7.10.
As to `CCc1ccncc1Oc1nc(N2C[C@@H]3C[C@H]2CN3)c2cc(C3CC3)c(-c3c(C)c(F)cc4[nH]ncc34)c(OCc3ccc(-c4cn([C@H](C(=O)N5C[C@H](O)C[C@H]5C(=O)N[C@@H](CO)c5ccc(-c6scnc6C)cc5)C(C)C)nn4)cc3)c2n1` [Example 25], the pIC50 in experiment [1] was 7.18; in experiment [2], 7.82.
For `Cc1ncsc1-c1ccc([C@H](CO)NC(=O)[C@@H]2C[C@@H](O)CN2C(=O)[C@H](C(C)C)n2cc(-c3ccc(COc4c(-c5c(C)c(F)cc6[nH]ncc56)c(C5CC5)cc5c(N6C[C@@H]7C[C@H]6CN7)nc(O[C@@H](C)[C@H](C)O)nc45)cc3)nn2)cc1` [Example 42] the same measures were 7.34 and 7.66.
In the case of `Cc1ncsc1-c1ccc([C@H](CO)NC(=O)[C@@H]2C[C@@H](O)CN2C(=O)[C@H](C(C)C)N2Cc3cc(COc4c(-c5c(C)c(F)cc6[nH]ncc56)c(C5CC5)cc5c(N6C[C@@H]7C[C@H]6CN7)nc(OC6CCOCC6)nc45)ccc3C2=O)cc1` [Example 4], the negative-log IC50 (pIC50) was 6.17 in experiment [1] and 6.28 in experiment [2].
`Cc1ncsc1-c1ccc([C@H](CO)NC(=O)[C@@H]2C[C@@H](O)CN2C(=O)[C@H](C2CC2)n2cc(-c3ccc(COc4c(-c5c(C)c(F)cc6[nH]ncc56)c(C5CC5)cc5c(N6C[C@@H]7C[C@H]6CN7)nc(OC6CCOCC6)nc45)cc3)nn2)cc1` [Example 73]: the negative logarithm of the IC50 (pIC50) in experiment [1] (read-out: IC50) was 6.95; in experiment [2] (read-out: IC50), 6.88.
As to `CO[C@@H](C)COc1nc(N2C[C@@H]3C[C@H]2CN3)c2cc(C3CC3)c(-c3c(C)c(F)cc4[nH]ncc34)c(OCc3ccc(-c4cn([C@H](C(=O)N5C[C@H](O)C[C@H]5C(=O)N[C@@H](CO)c5ccc(F)cc5)C(C)C)nn4)cc3)c2n1` [Example 58], the pIC50 is 7.10 in experiment [1] and 7.60 in experiment [2].
As to `CCn1nccc1-c1ccc([C@H](CO)NC(=O)[C@@H]2C[C@@H](O)CN2C(=O)[C@H](C(C)C)n2cc(-c3ccc(COc4c(-c5c(C)c(F)cc6[nH]ncc56)c(C5CC5)cc5c(N6C[C@@H]7C[C@H]6CN7)nc(OC[C@H](C)OC)nc45)cc3)nn2)cc1` [Example 70], the pIC50 in experiment [1] (read-out: IC50) was 7.68; in experiment [2] (read-out: IC50) it was 7.92.
As for `Cc1ncsc1-c1ccc([C@H](CO)NC(=O)[C@@H]2C[C@@H](O)CN2C(=O)[C@H](C(C)C)n2cc(-c3ccc(COc4c(-c5c(C)c(F)cc6[nH]ncc56)c(C5CC5)cc5c(N6C[C@@H]7C[C@H]6CN7)nc(OC6COC6)nc45)cc3)nn2)cc1` [Example 27], the pIC50 in experiment [1] was 6.99; in experiment [2], 7.57.
As to `CO[C@@H](C)COc1nc(N2C[C@@H]3C[C@H]2CN3)c2cc(C3CC3)c(-c3c(C)c(F)cc4[nH]ncc34)c(OCc3ccc(-c4cn([C@H](C(=O)N5C[C@H](O)C[C@H]5C(=O)N[C@@H](CO)c5ccc(-c6ocnc6C)cc5)C(C)C)nn4)cc3)c2n1` [Example 72], the negative logarithm of the IC50 (pIC50) in experiment [1] (read-out: IC50) was 7.59; in experiment [2] (read-out: IC50), 7.80.
`Cc1ncsc1-c1ccc([C@H](CO)NC(=O)[C@@H]2C[C@@H](O)CN2C(=O)[C@H](C(C)C)n2cc(-c3ccc(COc4c(-c5c(C)c(F)cc6[nH]ncc56)c(C5CC5)cc5c(N6C[C@@H]7C[C@H]6CN7)nc(O[C@@H]6CCOC6)nc45)cc3)nn2)cc1` [Example 28]: the pIC50 in experiment [1] is 7.43; in experiment [2], 7.92.
For `Cc1c(F)cc2[nH]ncc2c1-c1c(C2CC2)cc2c(N3C[C@@H]4C[C@H]3CN4)nc(OC3CCOCC3)nc2c1OCc1ccc(-c2cn([C@H](C(=O)N3C[C@H](O)C[C@H]3C(=O)N[C@@H](CO)c3ccc(Br)cc3)C(C)C)nn2)cc1` [Example 12] the same measures were 6.95 and 7.43.
